Source: patent publication EP0701444B1, “METHODS AND COMPOSITIONS FOR INDUCING SLEEP” (Purdue Pharma Ltd., priority 1993, dated 1994)
pIC50: −log10 of the molar value. Values joined by “and” are separate entries in the source; they are usually repeats but may differ in a detail not shown here. Identical values can stand only once. Counter-ions that a name gives are not always drawn.

What follows are compounds tested against steroid site on the GABAA receptor-chloride channel complex (assay: [35S]TBPS binding assay). Conditions: inhibition of [35S]TBPS (2 nM) binding, rat cerebral cortex P2 membranes, 5 µM GABA, 90 minute incubation at 22°C.
Set-up: species or system Male Sprague-Dawley rats
Protocol: TBPS binding assays were conducted according to the following procedures, which are described in Gee, K.W.; Lawrence, L.J.; and Yamamura, H. I., "Modulation of the Chloride Ionophore by Benzodiazepine Receptor Ligands Influence of Gamma-Aminobutyric Acid and Ligand Efficacy," Molecular Pharmacology, 30:218, 1986. Male Sprague-Dawley rats (200-250g) were anesthetized with carbon dioxide and decapitated. The rats' brains were removed and the cerebral cortices were dissected and homogenized in 10 volumes of 0.32 M sucrose. Tissue was centrifuged at 1000 x g for 10 minutes and the resultant supernatant was centrifuged at 9,000 g for 20 minutes. The resultant pellet was resuspended in 10 volumes of 200 mM NaCl/50 mM Na-K phosphate pH 7.4 buffer (binding buffer) and then centrifuged at 9,000 x g for 10 minutes. This washing procedure was repeated twice and the final P2 pellet was resuspended in the binding buffer. For the binding assay, [^35S] TBPS (2 nM) was co-incubated in binding buffer with P2 membranes and 5 µM GABA and either 1) no additions to measure total binding; 2) 2 µM unlabeled TPBS to measure nonspecific binding; 3) the neurosteroid ranging in concentration from 1 Nm to 10µM. Following a 90 minute incubation at 22°C, the suspension was filtered and the bound radioactivity was determined by liquid scintillation counting. […] A lower IC50 indicates higher affinity for the steroid site on the GABAA receptor-chloride channel complex. Table 1 gives the IC50 values of representative steroids used in the present invention.

Point of comparison: “20,20-ethylenedioxy-3α-hydroxy-5α-pregnan-20-one”, pIC50 6.75. Against it:
- CC(=O)[C@H]1CC[C@H]2[C@@H]3CC[C@H]4C[C@@](O)(CC#N)CC[C@]4(C)[C@H]3CC[C@]12C [3β-cyanomethyl-3α-hydroxy-5α-pregnan-20-one] — 0.39 log units lower, 6.36
- C#C[C@H]1CC[C@H]2[C@@H]3CC[C@H]4C[C@H](O)CC[C@]4(C)[C@H]3CC[C@]12C [3α-Hydroxy-17b-ethynyl-5α-androstane] — within 0.2 log units, 6.60
- COC[C@@]1(O)CC[C@@]2(C)[C@@H](CC[C@@H]3[C@@H]2CC[C@]2(C)[C@@H](C(C)=O)CC[C@@H]32)C1 [3α-hydroxy-3β-methoxymethyl-5α-pregnan-20-one] — 0.42 log units higher, 7.17
- C#C[C@@]1(O)CC[C@@]2(C)[C@@H](CC[C@@H]3[C@@H]2CC[C@]2(C)[C@@H](C(=O)CO)CC[C@@H]32)C1 [3α,21-Dihydroxy-3β-ethynyl-5α-pregnan-20-one] — within 0.2 log units, 6.67
- C[C@@H](O)[C@H]1CC[C@H]2[C@@H]3CC[C@@H]4C[C@H](O)CC[C@]4(C)[C@H]3CC[C@]12C [3α,20b-dihydroxy-5β-pregnane] — within 0.2 log units, 6.69
- C/C=C1/CC[C@H]2[C@@H]3CC[C@@H]4C[C@](C)(O)CC[C@@H]4[C@H]3CC[C@]12C [3α-Hydroxy-3β-methyl-5β-19-nor-pregn-17 (Z)-ene] — within 0.2 log units, 6.81
- C/C=C1/CC[C@H]2[C@@H]3CC[C@H]4C[C@](C)(O)CC[C@@H]4[C@H]3CC[C@]12C [3α-hydroxy-3β-methyl-5α-19-nor-pregn-(Z)-17(20)-ene] — 0.31 log units lower, 6.44
- CCOC[C@@]1(O)CC[C@@]2(C)[C@@H](CC[C@@H]3[C@@H]2CC[C@]2(C)[C@@H](C(C)=O)CC[C@@H]32)C1 [3β-(Ethoxymethyl)-3α-hydroxy-5α-pregnan-20-one] — within 0.2 log units, 6.81
- CC(C)(O)[C@H]1CC[C@H]2[C@@H]3CC[C@H]4C[C@](C)(O)CC[C@]4(C)[C@H]3CC[C@]12C [3α, 20-dihydroxy-3β, 20-dimethyl-5α-pregnane] — within 0.2 log units, 6.58
- CC(=O)[C@H]1CC[C@H]2[C@@H]3CC[C@H]4C[C@@](O)(CCl)CC[C@]4(C)[C@H]3CC[C@]12C [3α-hydroxy-3β-chloromethyl-5α-pregnan-20-one] — 0.28 log units higher, 7.03
- CC(=O)[C@H]1CC[C@H]2[C@@H]3CC[C@@H]4C[C@@](O)(C#CCC(C)OC(=O)CCC(=O)O)CC[C@]4(C)[C@H]3CC[C@]12C (mixture of isomers) [3α-Hydroxy-3β-[4'(R/S)-hydroxypentynyl]-5β-pregnan-20-one 4'(R/S)-hemisuccinate sodium salt] — within 0.2 log units, 6.82
- 3α-Hydroxy-3β-trifluoromethyl-5β-19-nor-pregn-17(20)-ene — 0.43 log units lower, 6.32
- CC(=O)[C@H]1CC[C@H]2[C@@H]3CC[C@H]4C[C@@](O)(C#CC(C)O)CC[C@]4(C)[C@H]3CC[C@]12C (stereo partly drawn) [3α-Hydroxy-3β-[3'(RS)-hydroxybutynyl]-5α-pregnan-20-one] — within 0.2 log units, 6.85
- C#C[C@@]1(O)CC[C@H]2[C@H](CC[C@@H]3[C@@H]2CC[C@]2(C)/C(=C\C)CC[C@@H]32)C1 [3β-Ethynyl-3α-hydroxy-5β-19-nor-pregn-17(z)-ene] — 0.41 log units lower, 6.34
- CC(=O)[C@H]1CC[C@H]2[C@@H]3CC[C@H]4C[C@@](O)(C(F)(F)F)CC[C@@H]4[C@H]3CC[C@]12C [3α-Hydroxy-3β-trifluoromethyl-19-nor-5α-pregnan-20-one] — within 0.2 log units, 6.60
- CCCCCCC#C[C@@]1(O)CC[C@@]2(C)[C@H](CC[C@@H]3[C@@H]2CC[C@]2(C)[C@@H](C(C)=O)CC[C@@H]32)C1 [3β-(1-Octynyl)-3α-hydroxy-5β-pregnan-20-one] — 0.45 log units higher, 7.20
- C[C@H](O)[C@H]1CC[C@H]2[C@@H]3CC[C@H]4C[C@](C)(O)CC[C@]4(C)[C@H]3CC[C@]12C [3α,20a-dihydroxy-30-methyl-5α-pregnane] — within 0.2 log units, 6.78
- CO/C=C1/CC[C@H]2[C@@H]3CC[C@H]4C[C@H](O)CC[C@@H]4[C@H]3CC[C@]12C [3α-hydroxy-17(Z)-methoxymethylene-19-nor-5α-androstane] — 0.29 log units lower, 6.46
- C/C=C1/CC[C@H]2[C@@H]3CC[C@@H]4C[C@H](O)CC[C@@H]4[C@H]3CC[C@]12C [3α-Hydroxy-5β-19-nor-pregn-17(z) ene] — within 0.2 log units, 6.68
- COCC(=O)[C@H]1CC[C@H]2[C@@H]3CC[C@@H]4C[C@@](O)(C(F)(F)F)CC[C@@H]4[C@H]3CC[C@]12C [3α-hydroxy-21-methoxy-3β-trifluoromethyl-5β-19-nor-pregnan-20-one] — within 0.2 log units, 6.60
- COc1ccc(C#C[C@@]2(O)CC[C@@]3(C)[C@H](CC[C@@H]4[C@@H]3CC[C@]3(C)[C@@H](C(C)=O)CC[C@@H]43)C2)cc1OC [3β-[(3',4'-Dimethoxyphenyl)ethynyl] -3α-hydroxy-5/3-pregnan-20-one] — 0.20 log units lower, 6.55
- CC(=O)[C@H]1CC[C@H]2[C@@H]3CC[C@H]4C[C@@](O)(CN=[N+]=[N-])CC[C@]4(C)[C@H]3CC[C@]12C [3β-azidomethyl-3α-hydroxy-5α-pregnan-20-one] — 0.72 log units higher, 7.47
- CC(=O)[C@H]1CC[C@H]2[C@@H]3CC[C@H]4C[C@@](O)(CF)CC[C@]4(C)[C@H]3CC[C@]12C [3α-hydroxy-3β-fluoromethyl-5α-pregnan-20-one] — within 0.2 log units, 6.70
- CCOC(=O)c1ccc(C#C[C@@]2(O)CC[C@@]3(C)[C@H](CC[C@@H]4[C@@H]3CC[C@]3(C)[C@@H](C(C)=O)CC[C@@H]43)C2)cc1 [3β-(4'-Carboxyphenyl)ethynyl-3α-hydroxy-5β-pregnan-20-one ethyl ester] — 1.35 log units higher, 8.10
- C[C@]12CC[C@@H](O)C[C@@H]1CC[C@@H]1[C@@H]2CC[C@]2(C)[C@@H](CO)CC[C@@H]12 [3α-hydroxy-17b-hydroxymethyl-5α-androstane-] — 0.41 log units lower, 6.34
- C=C=CC[C@@]1(O)CC[C@@]2(C)[C@@H](CC[C@@H]3[C@@H]2CC[C@]2(C)[C@@H](C(C)=O)CC[C@@H]32)C1 [3β-(Buta-2,3-dienyl)-3α-hydroxy-5α-pregnan-20-one] — 0.29 log units lower, 6.46
- CC[C@H](O)[C@H]1CC[C@H]2[C@@H]3CC[C@H]4C[C@H](O)CC[C@]4(C)[C@H]3CC[C@]12C [3α,20a-Dihydroxy-21-methyl-5α-pregnane] — 0.71 log units higher, 7.46
- C[C@]12CC[C@@H](O)C[C@@H]1CC[C@@H]1[C@@H]2CC[C@]2(C)[C@@H](C#N)CC[C@@H]12 [3α-hydroxy-17b-cyano-5α-androstane] — 0.42 log units higher, 7.17
- CCCCCC#C[C@@]1(O)CC[C@@]2(C)[C@H](CC[C@@H]3[C@@H]2CC[C@]2(C)[C@@H](C(C)=O)CC[C@@H]32)C1 [3β-(1-Heptynyl)-3α-hydroxy-5β-pregnan-20-one] — 0.44 log units higher, 7.19
- CC(=O)[C@H]1CC[C@H]2[C@@H]3CC[C@@H]4C[C@@](O)(C#CCl)CC[C@]4(C)[C@H]3CC[C@]12C [3β-(chloroethynyl)-3α-hydroxy-5β-pregnan-20-one] — 0.84 log units higher, 7.59
- CC(=O)[C@H]1CC[C@H]2[C@@H]3CC[C@H]4C[C@](C)(O)CC[C@@H]4[C@H]3CC[C@]12C [3α-hydroxy-3β-methyl-5α-19-nor-pregnan-20-) one] — 0.29 log units higher, 7.04
- CC(C)(O)[C@H]1CC[C@H]2[C@@H]3CC[C@H]4C[C@H](O)CC[C@]4(C)[C@H]3CC[C@]12C [3α,20-dihydroxy-20-methyl-5α-pregnane] — within 0.2 log units, 6.82
- CC(=O)[C@H]1CC[C@H]2[C@@H]3CC[C@@H]4C[C@@](O)(C#Cc5ccccc5O)CC[C@]4(C)[C@H]3CC[C@]12C [3β-(2'-Hydroxyphenyl)ethynyl-3α-hydroxy-5β-pregnan-20-one] — within 0.2 log units, 6.72
- C[C@]12CC[C@@H](O)C[C@H]1CC[C@@H]1[C@@H]2CC[C@]2(C)[C@@H](C(=O)CO)CC[C@@H]12 [3α,21-dihydroxy-50-pregnan-20-one] — within 0.2 log units, 6.74
- C[C@@]12CCC[C@H]1[C@@H]1CC[C@H]3C[C@H](O)CC[C@]3(C)[C@H]1CC2 [3α-Hydroxy-5α-androstane] — within 0.2 log units, 6.60
- C[C@@]1(O)CC[C@@]2(C)[C@@H](CC[C@@H]3[C@@H]2CC[C@]2(C)[C@@H](C(=O)COS(C)(=O)=O)CC[C@@H]32)C1 [3α, 21-dihydroxy-3β-methyl-5α-pregnan-20-one 21-mesylate] — within 0.2 log units, 6.59
- COC[C@@]1(O)CC[C@@]2(C)[C@H](CC[C@@H]3[C@@H]2CC[C@]2(C)[C@@H](C(C)=O)CC[C@@H]32)C1 [3α-hydroxy-30-methoxymethyl-5β-pregnan-20-one] — 0.65 log units higher, 7.40
- C[C@]12CC[C@@H](O)C[C@H]1CC[C@@H]1[C@@H]2CC[C@]2(C)[C@@H](C(=O)COC(=O)CCC(=O)O)CC[C@@H]12 [3α,21-dihydroxy-5β-pregnan-20-one 21-hemisuccinate] — within 0.2 log units, 6.65

In the case of `CC(=O)OCC(=O)[C@H]1CC[C@H]2[C@@H]3CC[C@H]4C[C@H](O)CC[C@]4(C)[C@H]3CC[C@]12C` [3α,21-dihydroxy-5α-pregnan-20-one 21-acetate], the pIC50 was 7.12 and 6.92.

Same assay, conditions: inhibition of [35S]TBPS (2 nM) binding, rat cerebral cortex P2 membranes, 5 µM GABA, 90 minute incubation at 22°C; sodium salt

Point of comparison: `C[C@]12CC[C@@H](O)C[C@@H]1CC[C@@H]1[C@@H]2CC[C@]2(C)[C@@H](C(=O)COC(=O)CCC(=O)O)CC[C@@H]12` [3α,21-dihydroxy-5α-pregnan-20-one 21-hemisuccinate, sodium salt], pIC50 6.60. Against it:
- C[C@@]1(O)CC[C@@]2(C)[C@@H](CC[C@@H]3[C@@H]2CC[C@]2(C)[C@@H](C(=O)COC(=O)CCC(=O)O)CC[C@@H]32)C1 [3α,21-dihydroxy-3β-methyl-5α-pregnan-20-one 21-Hemisuccinate, sodium salt] — within 0.2 log units, 6.68
